The nature of series [1]: Pharmacokinetics in mouse plasma. In kind it is in vivo. The following applies: 5.2 mg/kg i.p.; for half-life in mouse plasma: Example 3; for half-life / concentration at 5 min: female; for half-life: C57BL/6, ip, mouse plasma, Example 1; for concentration at 5 min: C57BL/6, mouse, plasma, intraperitoneal, read-out: concentration in mouse plasma after 5 minutes. The source says:
To assess the pharmacokinetics (PK) of the curcuphenol analogues, a mass spectrometry assay was developed to measure the compounds in plasma. This assay was created by The Metabolomics Innovation Center (TMIC) at UVic-Genome BC Proteomics Centre located in Victoria, British Columbia. Eight samples were sent to TMIC for PK design for identification of P02-113 and P03-97-1 in mouse plasma. To collect plasma, mice were anesthetized using isoflurane and blood was collected by cardiac puncture. Plasma was isolated from blood in a potassium-EDTA coated Tube with K2E (BD Microtainer) and centrifugation at 10,000×g for 1 minute. Plasma was transferred to a cryovial and stored at −20° C. before being shipped on dry ice. TMIC used a chemical derivatization—UPLC-MMR/MS method to create a quantitative analysis tool for the compounds using dansyl chloride (DAN.CI) as the derivatizing reagent. 13C-labeled DAN.CI was used to produce stable isotope-labeled internal standards (ISs). All tests were performed using an UPLC-4000 QTRAP system with ESI and (+) ion detection using C18 column and acetonitrile-water-formic acid as the mobile phase.
For the PK analysis of P02-113 and P03-97-1, mice were injected i.p. and anesthetized before blood was collected by cardiac puncture at five time points (5 min, 10 min, 30 min, 1 hour and 6 hour). […] Three female C57BL/6 mice, between the ages 6-8 weeks, were used for each compound for each time point, giving a total […]. All mice were injected at the highest maximum tolerated dose (5.2 mg/kg) and plasma was prepared and stored as previously described above.
Pharmacokinetic study. […]. Three mice were used for each time point, with a total of […]. Time points were strategically chosen based on the similar structure of the compounds to TSA, an HDACi, which is known to augment TAP and MHC-I expression in metastatic tumours and to be metabolized at a high rate. The chosen time points were 5 minutes, 10 minutes, 1 hour and 6 hours.

The target in series [2] is T1, HDAC4 (Homo sapiens, UniProt P56524).
T1 construct: purchased BPS Biosciences
T1 sequence (P56524 whole entry): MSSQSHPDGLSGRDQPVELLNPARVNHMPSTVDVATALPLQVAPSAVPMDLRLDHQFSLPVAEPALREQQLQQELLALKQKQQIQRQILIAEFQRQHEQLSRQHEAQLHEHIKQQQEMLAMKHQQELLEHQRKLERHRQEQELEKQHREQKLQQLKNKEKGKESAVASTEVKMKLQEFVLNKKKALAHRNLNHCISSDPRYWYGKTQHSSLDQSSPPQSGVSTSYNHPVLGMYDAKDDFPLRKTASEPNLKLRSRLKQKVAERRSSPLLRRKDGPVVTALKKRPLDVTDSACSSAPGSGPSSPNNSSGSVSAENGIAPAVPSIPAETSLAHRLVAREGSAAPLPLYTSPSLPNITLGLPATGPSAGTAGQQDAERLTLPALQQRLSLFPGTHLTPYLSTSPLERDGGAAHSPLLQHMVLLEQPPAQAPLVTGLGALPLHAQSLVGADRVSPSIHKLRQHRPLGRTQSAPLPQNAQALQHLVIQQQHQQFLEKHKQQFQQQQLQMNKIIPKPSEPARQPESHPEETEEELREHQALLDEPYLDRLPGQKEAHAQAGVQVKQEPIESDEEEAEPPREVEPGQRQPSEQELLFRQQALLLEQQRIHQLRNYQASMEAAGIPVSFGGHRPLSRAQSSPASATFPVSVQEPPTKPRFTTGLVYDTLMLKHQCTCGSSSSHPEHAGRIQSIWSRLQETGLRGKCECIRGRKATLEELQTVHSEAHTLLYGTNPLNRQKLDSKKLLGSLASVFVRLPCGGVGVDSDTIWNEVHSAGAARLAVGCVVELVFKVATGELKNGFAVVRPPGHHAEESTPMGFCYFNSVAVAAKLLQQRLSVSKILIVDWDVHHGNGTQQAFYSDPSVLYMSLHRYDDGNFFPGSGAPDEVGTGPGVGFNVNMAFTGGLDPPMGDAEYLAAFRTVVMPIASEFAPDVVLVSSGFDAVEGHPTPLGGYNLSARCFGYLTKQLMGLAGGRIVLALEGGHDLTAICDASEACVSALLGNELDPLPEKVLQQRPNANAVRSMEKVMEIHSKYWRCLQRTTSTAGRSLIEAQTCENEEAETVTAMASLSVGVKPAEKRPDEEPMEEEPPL
As to the kind of experiment: Individualized HDAC assay, HDAC4. It counts as biochemical. The following applies: purified enzyme, 5 to 0.02 μM. As for the experimental part: (§1) The activity of the curcuphenol analogues was assessed with purified HDAC enzymes from all classes I, II, and IV, as well as a select member of HDAC class III (SIRT1). HDACs 1-9 and SIRT1 were evaluated using HDAC Fluorogenic Assay Kits (BPS Biosciences). All assays were completed in black-sided clear-bottom 96 well plates (PerkinElmer), and all treatments were plated in triplicates. Treatment started at 5 μM and was two-fold diluted to a concentration 0.02 μM. The assays were measured using the Synergy HI hybrid reader (BioTek) and Gen5 software (BioTek), excitation was set to 360 nm and detection was measured at 450 nm with a gain of 100. Alternatively HDAC 10 and 11 (BPS Biosciences) were optimized for HDAC concentration using the HDAC-Glo™ I/II Assay and Screening System (Promega). Following optimization each HDAC was run following the Promega protocol in black-sided clear-bottomed 96 well plates in triplicates with same treatments listed above (PerkinElmer). Luminescence was read 30 minutes after HDAC-Glo™I/II reagent was added using the Synergy HI hybrid reader (BioTek) and Gen5 software (Bio-Tek). […] To calculate percent activity, the average of blank wells was subtracted from all treatment groups. The relative mean of activity of the HDAC being measured was determined and all wells that received treatment were divided this average, to give a percentage of activity.
(§2) To evaluate the effect of the compounds on specific HDACs, their activity was assessed with purified HDAC enzymes from all classes I, II, and IV, as well as a select member of HDAC class III (SIRT1). HDACs 1-9 and SIRT1 were evaluated using HDAC Fluorogenic Assay Kits (BPS Biosciences) following the manufacturer's recommendations. Compound treatment started at 5 μM and was two-fold diluted to a concentration 0.02 μM. […] The assays were measured using the Synergy HI hybrid reader (BioTek) and Gen5 software (Bio-Tek). […] To calculate the fold change in HDAC activity, the values from each treated well were divided by the relative mean of activity of the specific HDAC being measured.

Series [3] has as its target T2, HDAC7 (Homo sapiens, UniProt Q8WUI4).
T2 construct: purchased BPS Biosciences
T2 sequence (Q8WUI4 1-952): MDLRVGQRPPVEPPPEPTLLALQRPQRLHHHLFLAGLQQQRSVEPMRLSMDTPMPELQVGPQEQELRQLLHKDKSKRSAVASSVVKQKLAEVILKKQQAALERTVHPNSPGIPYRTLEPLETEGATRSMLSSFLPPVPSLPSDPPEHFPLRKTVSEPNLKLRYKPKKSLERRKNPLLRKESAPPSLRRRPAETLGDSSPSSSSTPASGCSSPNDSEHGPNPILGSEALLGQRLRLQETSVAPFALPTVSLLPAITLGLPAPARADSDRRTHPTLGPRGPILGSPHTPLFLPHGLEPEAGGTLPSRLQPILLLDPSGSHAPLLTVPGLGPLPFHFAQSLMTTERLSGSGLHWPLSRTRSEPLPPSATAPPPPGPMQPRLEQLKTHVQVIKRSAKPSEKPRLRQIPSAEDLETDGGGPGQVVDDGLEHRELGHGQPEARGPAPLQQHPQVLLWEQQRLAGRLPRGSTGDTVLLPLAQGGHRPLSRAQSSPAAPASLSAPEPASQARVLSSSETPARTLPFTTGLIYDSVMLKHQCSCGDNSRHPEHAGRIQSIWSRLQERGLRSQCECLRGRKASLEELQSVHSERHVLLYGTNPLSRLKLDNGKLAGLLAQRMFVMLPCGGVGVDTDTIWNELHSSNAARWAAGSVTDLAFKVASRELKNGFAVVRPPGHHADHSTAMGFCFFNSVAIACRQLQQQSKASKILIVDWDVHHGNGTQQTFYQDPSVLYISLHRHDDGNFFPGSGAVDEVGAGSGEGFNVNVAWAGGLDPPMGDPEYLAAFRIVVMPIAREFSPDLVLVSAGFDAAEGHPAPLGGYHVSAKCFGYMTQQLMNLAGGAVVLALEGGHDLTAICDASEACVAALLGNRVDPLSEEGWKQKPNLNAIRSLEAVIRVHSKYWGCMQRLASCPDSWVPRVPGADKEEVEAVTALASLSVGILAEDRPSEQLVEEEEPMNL
As to the kind of experiment: Individualized HDAC assay, HDAC7. The following applies: purified enzyme, 5 to 0.02 μM. In kind it is biochemical. As for the experimental part: as §1, §2

“Also recorded” adds a separate entry of the source. Some results are limits rather than exact numbers.

With `CC(C)=CCCCc1ccc(C)cc1O` [P02-113], in series [1], the “level in mouse plasma at the 6 hour time point” value was “undetectable levels”, the “time at which plasma concentration was half of the 5 minute concentration” value stood at 10 min, the “half-life in mouse plasma” value is listed as “roughly one” and the half-life was < 5 min. In series [1], the concentration at 5 min was determined as 0.4 ng/mL. In addition, in series [2], the HDAC4 activity result is “no change in activity; also recorded: did not affect the activity; also recorded: unaffected”. Further, the HDAC7 activity result in series [3] is “no change in activity; also recorded: did not affect the activity; also recorded: unaffected”.
Consider `COc1ccc(C(C)CCC=C(C)C)c(O)c1` (stereo not shown) [P03-97-1], for which, in series [1], the “level in mouse plasma at the 6 hour time point” value is on record as “undetectable levels”, the “time at which plasma concentration was half of the 5 minute concentration” value was “around 20 minutes”, the “half-life in mouse plasma” value is recorded as “roughly one” and the half-life worked out at 15 min. Also, the concentration at 5 min in series [1] was 30 ng/mL. Moreover, the HDAC4 activity entry in series [2] is “no change in activity; also recorded: unaffected”. Moreover, the HDAC4 activity entry in series [2] (listed as PO-3-97-1) was “did not affect the activity”. In addition, the HDAC7 activity entry in series [3] is listed as “no change in activity; also recorded: unaffected”. Besides, the HDAC7 activity result in series [3] (listed as PO-3-97-1) was “did not affect the activity”.

By half-life is commonly meant the time in which the quantity being followed falls by half.

Source of the values: US20220105051A1, “COMPOUNDS FOR INCREASING MHC-I EXPRESSION AND MODULATING HISTONE DEACETYLASE ACTIVITY” (Cava Healthcare Inc., priority 2019, published 2022).
